Measurements reported in patent US4988691A (priority 1989, dated 1991).
Counter-ions that a name gives are not always drawn. Like-named read-outs stand apart in the source and are kept apart here.

Legend:
[1] = molecular target: T1, contracturing effect of histamine (Cavia porcellus, UniProt P31389); experiment: antihistaminic activity in vitro (contracturing effect of histamine on isolated guinea pig small intestine); set-up: species or system Guinea pigs; conditions: vs histamine; guinea pig small intestine; 37° C.; test compounds 10^-5 M; read-out: Antihistaminic activity (pA2) (converted)
T1 construct: Segments measuring 5-6 cm were drawn form the end portion of the small intestine; from tissue; host or cells: guinea pig terminal small intestine (ileum)
T1 sequence (P31389 whole entry): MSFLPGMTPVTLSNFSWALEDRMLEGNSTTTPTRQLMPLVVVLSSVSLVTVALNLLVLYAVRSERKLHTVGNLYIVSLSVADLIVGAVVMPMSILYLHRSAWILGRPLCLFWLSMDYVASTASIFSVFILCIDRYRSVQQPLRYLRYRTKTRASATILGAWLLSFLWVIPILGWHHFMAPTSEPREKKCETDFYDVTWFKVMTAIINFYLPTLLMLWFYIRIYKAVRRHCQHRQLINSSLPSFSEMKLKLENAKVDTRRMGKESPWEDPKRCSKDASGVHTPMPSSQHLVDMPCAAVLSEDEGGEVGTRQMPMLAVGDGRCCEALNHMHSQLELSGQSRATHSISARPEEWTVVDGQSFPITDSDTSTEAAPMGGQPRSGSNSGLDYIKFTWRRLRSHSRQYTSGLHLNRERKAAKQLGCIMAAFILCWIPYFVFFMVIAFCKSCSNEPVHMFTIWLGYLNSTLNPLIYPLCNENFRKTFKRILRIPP

[2] = system: receptors for benzodiazepins; experiment: displacement of 3H-flunitrazepam from benzodiazepine receptors, rat cerebral cortex membranes; type: binding; conditions: 3H-flunitrazepam 1nM
guinea pig back = experiment: local anaesthetic activity in the test of the guinea pig back in vivo (intracutaneous infiltration); conditions: guinea pig back, cutaneous anaesthesia, 0.25 ml
Description: (b) Evaluation of the local anaesthetic activity in the test of the guinea pig back in vivo in comparison with lidocaine.
The local anaesthetic activity was evaluated by the method of intracutaneous infiltration in the guinea pig back as described by Bulbring E. and Wajda I. [(J. Pharmacol. Exp. Ther. 85, 78, (1945)].
Female guinea pigs weighin 400-500 g were treated intracutaneously in 4 points of their back.
At 5 minutes intervals, it was determined the reactivity of the animal to pain in each area by considering the number of responses to 6 pain stimulations.
Compounds of formula I, compound R and lidocaine, dissolved at different concentration in physiological solution adjusting the pH at 7 by addition of NaHCO3 were injected under the skin at the constant volume of 0.25 ml.
The distribution of the treatments in the 4 areas of the back was carried out according to the scheme of the Latin square. Experiments were carried out in blind.
As an example, the ED50 values for compound No. 8, compound R and lidocaine determined at 5, 15 and 30 minutes after the administration are reported in table 4.

rat sciatic nerve = experiment: local anaesthetic activity on sciatic nerve preparation in vitro; conditions: read-out: ED50 (C.L. 95%)
[3] = molecular target: T2, contracturing effect of acetylcholine (Cavia porcellus, UniProt H0W1Z3); experiment: anticholinergic activity in vitro (contracturing effect of acetylcholine on isolated guinea pig small intestine); set-up: species or system Guinea pigs
T2 construct: Segments measuring 5-6 cm were drawn form the end portion of the small intestine; from tissue; host or cells: guinea pig terminal small intestine (ileum)
T2 sequence (H0W1Z3 1-590): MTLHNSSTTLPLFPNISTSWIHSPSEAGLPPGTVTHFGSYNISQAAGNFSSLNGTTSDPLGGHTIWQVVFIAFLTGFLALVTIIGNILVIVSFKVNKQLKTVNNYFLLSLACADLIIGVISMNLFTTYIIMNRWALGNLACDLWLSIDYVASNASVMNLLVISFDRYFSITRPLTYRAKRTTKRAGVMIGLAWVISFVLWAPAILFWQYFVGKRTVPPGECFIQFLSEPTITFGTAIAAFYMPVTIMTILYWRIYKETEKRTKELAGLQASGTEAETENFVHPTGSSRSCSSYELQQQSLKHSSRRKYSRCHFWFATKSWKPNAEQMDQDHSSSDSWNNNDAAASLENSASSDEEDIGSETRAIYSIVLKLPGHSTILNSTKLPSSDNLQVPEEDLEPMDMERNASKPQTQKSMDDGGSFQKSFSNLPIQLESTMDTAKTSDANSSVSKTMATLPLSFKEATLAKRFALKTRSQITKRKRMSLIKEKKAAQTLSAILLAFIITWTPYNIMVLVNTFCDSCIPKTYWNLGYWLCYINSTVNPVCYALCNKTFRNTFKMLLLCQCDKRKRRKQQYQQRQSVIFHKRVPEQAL

5-HT2 receptors = 5-HT2 receptors (Rattus norvegicus, UniProt P14842); experiment: affinity for 5-HT2 receptors (3H-spiroperidol binding), rat cortex membranes; conditions: 3H-spiroperidol […]; rat frontal cortex membranes
Sequence of 5-HT2 receptors (P14842 whole entry): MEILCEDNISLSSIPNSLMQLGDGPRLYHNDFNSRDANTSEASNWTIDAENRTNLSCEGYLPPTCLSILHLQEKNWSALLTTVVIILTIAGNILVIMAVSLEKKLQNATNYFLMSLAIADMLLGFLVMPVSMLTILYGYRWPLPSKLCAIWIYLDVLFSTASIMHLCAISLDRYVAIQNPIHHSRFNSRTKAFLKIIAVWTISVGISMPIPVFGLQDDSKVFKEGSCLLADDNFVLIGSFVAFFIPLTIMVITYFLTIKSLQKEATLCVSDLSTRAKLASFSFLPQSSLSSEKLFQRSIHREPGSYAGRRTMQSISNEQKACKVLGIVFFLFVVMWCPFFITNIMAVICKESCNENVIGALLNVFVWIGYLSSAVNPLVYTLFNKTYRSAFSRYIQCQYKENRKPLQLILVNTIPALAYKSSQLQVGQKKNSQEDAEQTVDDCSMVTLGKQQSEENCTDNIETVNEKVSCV

Ca^++ receptors = experiment: displacement of 3H-nitrendipine from Ca++ receptors, rat brain membranes; type: binding; conditions: 3H-nitrendipine 1nM
5-HT3 receptors = molecular target: T3, 5-HT3 receptors (Oryctolagus cuniculus, UniProt A0A5F9C9J3); experiment: anti-5-HT3 activity in vitro on the isolated vagus nerve of rabbit
T3 construct: from tissue; host or cells: isolated rabbit vagus nerve
T3 sequence (A0A5F9C9J3 1-494): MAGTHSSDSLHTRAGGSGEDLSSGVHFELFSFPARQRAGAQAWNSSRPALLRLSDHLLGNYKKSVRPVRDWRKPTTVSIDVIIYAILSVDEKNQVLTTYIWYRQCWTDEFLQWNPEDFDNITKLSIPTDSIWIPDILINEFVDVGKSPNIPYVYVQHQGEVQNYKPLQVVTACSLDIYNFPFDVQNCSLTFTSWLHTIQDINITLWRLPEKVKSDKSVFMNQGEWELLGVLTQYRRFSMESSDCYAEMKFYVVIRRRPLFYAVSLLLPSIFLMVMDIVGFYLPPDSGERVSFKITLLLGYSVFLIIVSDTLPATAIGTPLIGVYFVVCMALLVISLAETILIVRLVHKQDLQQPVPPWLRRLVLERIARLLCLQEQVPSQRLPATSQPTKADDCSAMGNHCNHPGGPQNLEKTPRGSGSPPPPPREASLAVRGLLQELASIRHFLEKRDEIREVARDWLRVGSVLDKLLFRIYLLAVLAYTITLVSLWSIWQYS
Description: (b) Evaluation of the anti-5-HT3 activity in vitro on the vagus nerve of rabbit. Male albino New Zeland rabbits weighing about 3 kg were sacrified by an air injection in the edge auriculaers vein. The two vagus nerves, drawn as soon as possible, were placed in a bath of Locke solution having the following composition: 154 mM NaCl; 5.5 mM KCl; 2.2 mM CaCl2; 5 mM glucose; 8 mM TRIS, the pH being adjusted at 7.6 by addition of HCl. Nerves were stripped of their epineurium and transferred into a device described by Kosterlitz H. W. et al., [J. Physiol., 183, IP-3P, (1966)] consisting of four compartments separated by means of 3 elastic membranes having a little hole through which the nerve passes. The glucose concentration perfusing a portion of the nerve was 315 mM. The overmaximal electric stimulation by a single shock at 10 seconds intervals elicited a potential visualized on a storage oscilloscope. In the potential the complexes due to the excitation of fibers A, B and C were distinguished. A serotonin solution applied to the nerve causes the dose-dependent fall of the potential for fibers C only. The non variation of the A-B complex when applying serotonin and the test compounds of formula I indicates on one hand the specific action of the substances for receptors relating to fibers C only (5-HT3 receptors) and on the other hand the absence of local-anaesthetic activity. Tests were performed at room temperature (24°-25° C.). The optimum maximum reduction of the potential of fibers C by serotonin resulted to be 44%. This reduction was adopted as maximum effect (100%). For each nerve a dose-response curve was constructed with cumulative doses of serotonin. After having washed serotonin and recovered the initial potential, the nerve was balanced with a fixed concentration of the compound of formula I for 60 minutes and successively the dose-response curve to serotonin was repeated, the compound of formula I being always present in the same concentration. After having applied a serotonin concentration sufficient to produce the highest effect, the preparation was washed and thereafter it was balanced again for 60 minutes with a solution of the same compound of formula I having a higher concentration. The procedure was then repeated. For each dose of the compound of formula I the test was repeated more than 5 times. The negative […] logarithm of the molar concentration of the compound of formula I which gives a 50% reduction of the effect of the agonist substance (pA2) was calculated. In table 7, the pA2 values of some compounds of formula I are reported.

5-HT1 receptors = experiment: affinity for 5-HT1 receptors (3H serotonin binding), rat cortex membranes; conditions: 3H-serotonin 5 nM; rat frontal cortex membranes
[4] = vs acetylcholine, guinea pig small intestine, 37° C., test compounds 10^-5 M, read-out: Antichlonergic activity (pA2) (converted)

SMILES: Cc1cc(C(=O)NC2CN3CCC2CC3)no1 (stereo not shown) [Compound 17, N-[3-(1-azabicyclo[2,2,2]octyl)]-5-methylisoxazole-3-carboxamide]
- Kb [1]: 50.1 µM

SMILES: CN1C(=O)CN=C(c2ccccc2)c2cc(Cl)ccc21 [diazepam, reference compound]
- Displacement activity at benzodiazepine receptors [2]: 4

SMILES: CCN(CC)CC(=O)Nc1c(C)cccc1C [lidocaine]
- ED50 (C.L. 95%), 5 min. (guinea pig back; 5 min. after administration): 5.8 (4.9-6.8) mM
- ED50 (C.L. 95%), 15 min. (guinea pig back; 15 min. after administration): 7.6 (6.8-8.4) mM
- ED50 (C.L. 95%), 30 min. (guinea pig back; 30 min. after administration): 15.2 (13.8-16.6) mM
- IC50 (rat sciatic nerve; rat, sciatic nerve, 8 min): 600 µM

SMILES: Cc1cc(C(=O)N[C@H]2C[C@H]3CC[C@@H](C2)N3C)no1 [Compound 16, N-[3-(endo-8-methyl-8-azabicyclo[3,2,1]octyl)]-5-methylisoxazole-3-carboxamide]
- Kb [1]: 7.94 µM
- Kb [3]: 126 µM

SMILES: Cc1cc(C(=O)N[C@@H]2C[C@H]3CC[C@@H](C2)N3C)no1 [Compound 15, N-[3-(exo-8-methyl-8-azabicyclo[3,2,1]octyl)]-5-methylisoxazole-3-carboxamide]
- Kb [1]: 50.1 µM

SMILES: Cc1cc(C(=O)OC2CCCN(C)C2)no1 (stereo not shown) [Compound 10, 5-methylisoxazole-3-carboxylic acid 3-(1-methylpiperidinyl) ester hydrochloride]
- Kb [1]: 200 µM
- Affinity (IC50) to 5-HT2 receptors (5-HT2 receptors): inactive
- Kb [3, 4]: 50.1 µM

SMILES: Cc1cc(C(=O)O[C@H]2C[C@H]3CC[C@@H](C2)N3C)on1 [Compound 5, 3-methylisoxazole-5-carboxylic acid 3-(endo-8-methyl-8-azabicyclo[3,2,1]octyl) ester hydrochloride]
- Displacement activity at benzodiazepine receptors [2]: inactive
- Kb [1]: 12.6 µM
- Displacement activity at receptors of Ca++ (Ca^++ receptors): inactive
- Kb (5-HT3 receptors): 0.00158 µM
- Kb [3]: 31.6 µM

SMILES: Cc1cc(C(=O)OC2CCN(C)CC2)no1 [Compound 9, 5-methylisoxazole-3-carboxylic acid 4-(1-methylpiperidinyl) ester hydrochloride]
- Kb [1]: 10 µM
- Kb [3, 4]: 25.1 µM
- IC50 (rat sciatic nerve; rat sciatic nerve in vitro, 8 minutes contact): > 15000 µM

SMILES: Cc1cc(C(=O)O[C@H]2C[C@H]3CC[C@@H](C2)[N+]3(C)C)no1 [Compound 18, endo-8,8-dimethyl-3-(5-methylisoxazole-3-carbonyloxy)-8-azoniabicyclo[3,2,1]octane bromide]
- Kb [1]: 15.8 µM
- Affinity (IC50) to 5-HT1 receptors (5-HT1 receptors): inactive
- Affinity (IC50) to 5-HT2 receptors (5-HT2 receptors): inactive
- Kb [3]: 6.31 µM
- IC50 (rat sciatic nerve; rat, sciatic nerve, 8 min): > 15000 µM

SMILES: COc1cc(C(=O)O[C@H]2C[C@H]3CC[C@@H](C2)N3C)on1 [Compound 6, 3-methoxyisoxazole-5-carboxylic acid 3-(endo-8-methyl-8-azabicyclo[3,2,1]octyl) ester hydrochloride]
- Kb [1]: 6.31 µM
- Kb (5-HT3 receptors): 0.00126 µM
- Kb [3]: 12.6 µM
- IC50 (rat sciatic nerve; rat, sciatic nerve, 8 min): > 15000 µM

SMILES: CN1[C@@H]2CC[C@H]1C[C@@H](OC(=O)c1cc(OCc3ccccc3)no1)C2 [Compound 3, 3-benzyloxyisoxazole-5-carboxylic acid 3-(endo-8-methyl-8-azabicyclo[3,2,1]octyl) ester hydrochloride]
- Kb [1]: 2.51 µM
- Kb [3]: 2 µM

SMILES: O=C(c1ccc(F)cc1)C1CCN(CCn2c(=O)[nH]c3ccccc3c2=O)CC1 [ketanserine, reference compound]
- IC50 (5-HT1 receptors): 10 µM

SMILES: NCCc1c[nH]c2ccc(O)cc12 [serotonin, reference compound]
- optimum maximum reduction of the potential of fibers C (5-HT3 receptors; serotonin applied to rabbit vagus nerve, 24°-25° C.): 44%

SMILES: CCN1CCCC(NC(=O)c2cc(C)on2)C1 (stereo not shown) [Compound 14, N-(1-ethyl-3-piperidinyl)-5-methylisoxazole-3-carboxamide]
- Kb [1]: 316 µM
